In brackets after ≈: the same amount, converted by molar mass. Read-outs that look alike come from different tables or passages of the source.
Tests used:
[1] = tested on: Pseudomonas aeruginosa PA669 (2009 tracheal aspirate isolate); assay: MIC assay, PA669; assay type: cell-based
[2] = tested on: Pseudomonas aeruginosa PA693 (2009 corneal scraping isolate); assay: MIC assay, PA693; assay type: cell-based
[3] = tested on: Escherichia coli EC107 (ATCC 25922); assay: MIC assay, EC107; assay type: cell-based
[4] = tested on: Enterococcus faecium EF404 (blood isolate, tet(M)); assay: MIC assay, EF404; assay type: cell-based
[5] = tested on: Proteus mirabilis PM112 (ATCC 35659); assay: MIC assay, PM112; assay type: cell-based; conditions: ATCC35659, read-out: MIC PM 112 35659
[6] = tested on: Moraxella catarrhalis MC205 (ATCC 8176); assay: MIC assay, MC205; assay type: cell-based; conditions: ATCC8176, read-out: MIC MC 205 8176
PA 884 35151 = assay: MIC assay, PA884; conditions: Pseudomonas aeruginosa, read-out: MIC PA 884 351 51
Method: (§3) MICs were determined according to the Clinical and Laboratory Standards Institute (CLSI) guidances (e.g., CLSI. Performance standards for antimicrobial susceptibility testing; nineteenth information supplement. CLSI document M100-S19, CLSI, 940 West Valley Road, Suite 1400, Wayne, Pa. 19087-1898, USA, 2009). Briefly, frozen bacterial strains were thawed and subcultured onto Mueller Hinton Broth (MHB) or other appropriate media (Streptococcus requires blood and Haemophilus requires hemin and NAD). Following incubation overnight, the strains were subcultured onto Mueller Hinton Agar and again incubated overnight. […] Isolated colonies were selected to prepare a starting inoculum equivalent to a 0.5 McFarland standard. […] Test compounds were prepared by dilution in sterile water to a final concentration of 5.128 mg/mL. Antibiotics (stored frozen, thawed and used within 3 hours of thawing) and compounds were further diluted to the desired working concentrations.
(§4) The assays were run as follows. Fifty μL of MHB was added to wells 2-12 of a 96-well plate. One hundred μL of appropriately diluted antibiotics was added to well 1. Fifty μL of antibiotics was removed from well 1 and added to well 2 and the contents of well 2 mixed by pipetting up and down five times. Fifty μL of the mixture in well 2 was removed and added to well 3 and mixed as above. Serial dilutions were continued in the same manner through well 12. Fifty μL was removed from well 12 so that all contained 50 μL. Fifty μL of the working inoculum was then added to all test wells. A growth control well was prepared by adding 50 μL of working inoculum and 50 μL of MHB to an empty well. The plates were then incubated at 37° C. overnight, removed from the incubator and each well was read on a plate reading mirror. The lowest concentration (MIC) of test compound that inhibited the growth of the bacteria was recorded.

[7] = tested on: Streptococcus pneumoniae SP106 (ATCC 49619); assay: MIC assay, SP106; assay type: cell-based; conditions: ATCC49619, read-out: MIC SP 106 49619
[8] = tested on: Escherichia coli EC878 (MG1655 tolC::kan); assay: microbe, parasite or virus in culture; assay type: cell-based
[9] = tested on: Pseudomonas aeruginosa PA111 (ATCC 27853); assay: MIC assay, PA111; assay type: cell-based; conditions: ATCC27853, read-out: MIC PA 111 27853
[10] = tested on: Streptococcus pyogenes SP312 (2009 clinical isolate, tet(M)); assay: MIC assay, SP312; assay type: cell-based
PA 689 = assay: MIC assay, PA689; conditions: Pseudomonas aeruginosa, read-out: MIC PA 689
Method: as §3, §4

KP 194 7E+05 = assay: MIC assay, KP194; conditions: Table 5
Method: as §3, §4

[11] = tested on: Haemophilus influenzae HI262 (tetracycline-resistant, ampicillin-resistant); assay: MIC assay, HI262; assay type: cell-based; conditions: read-out: MIC HI 262 33929
[12] = tested on: Enterococcus faecalis EF103 (ATCC 29212); assay: MIC assay, EF103; assay type: cell-based; conditions: ATCC29212, read-out: MIC EF 103 29212
[13] = tested on: Streptococcus pneumoniae SP160 (tet(M)); assay: MIC assay, SP160; assay type: cell-based
[14] = tested on: Pseudomonas aeruginosa PA1145 (strain used in murine pneumonia model); assay: MIC assay, PA1145; assay type: cell-based
EC 880 ipxC = assay: MIC assay, EC880; assay type: cell-based
From the text: (§1) Minimum Inhibitory Concentration (MIC) Assay
(§2) The assays were run as follows.

[15] = tested on: Enterobacter cloacae EC108 (ATCC 13047); assay: MIC assay, EC108; assay type: cell-based; conditions: ATCC13047, read-out: MIC ECI 108 13047
[16] = tested on: Enterococcus faecalis EF159 (tet(M)); assay: MIC assay, EF159; assay type: cell-based
[17] = tested on: Stenotrophomonas maltophilia SM256 (cystic fibrosis isolate, MDR); assay: MIC assay, SM256; assay type: cell-based
EC 882 imp = assay: MIC assay, EC882; assay type: cell-based; conditions: read-out: MIC EC 882 imp
From the text: as §1, §2

[18] = tested on: Staphylococcus aureus SA158 (tetracycline-resistant tet(K)); assay: MIC assay, SA158; assay type: cell-based
[19] = tested on: Pseudomonas aeruginosa PA555 (ATCC BAA-47, PAO1); assay: MIC assay, PA555; assay type: cell-based
[20] = tested on: Acinetobacter baumannii AB110 (ATCC 19606); assay: MIC assay, AB110; assay type: cell-based; conditions: ATCC19606, read-out: MIC AB 110 19606

CN(C)c1cc(NC(=O)CNC(C)(C)C)c(O)c2c1C[C@H]1C[C@H]3[C@H](N(C)C)C(O)=C(C(N)=O)C(=O)[C@@]3(O)C(O)=C1C2=O [Tigecycline, tigecycline]
MIC [1]: 32 µg/mL (≈ 54.6 µM) | MIC ([1]; read-out: MIC PA 669): 32 µg/mL (≈ 54.6 µM) | MIC [2]: 32 µg/mL (≈ 54.6 µM) | MIC ([2]; read-out: MIC PA 693): 33 µg/mL (≈ 56.3 µM) | MIC ([3]; ATCC25922, read-out: MIC EC 07 25922, E. coli ATCC 25922, Table 7): 0.03 µg/mL (≈ 0.0512 µM) | MIC ([3]; ATCC25922, read-out: MIC EC 107 259 22, E. coli ATCC 25922, Table 6): 0.03 µg/mL (≈ 0.0512 µM) | MIC ([3]; ATCC25922, read-out: MIC EC 107 25922, E. coli ATCC 25922, Table 4): 0.031 µg/mL (≈ 0.0529 µM) | MIC ([3]; ATCC25922, read-out: MIC EC 107 25922, E. coli ATCC 25922, Table 5): 0.03 µg/mL (≈ 0.0512 µM) | MIC ([3]; ATCC25922, read-out: MIC EC 107 25922, control compounds): 0.03 µg/mL (≈ 0.0512 µM) | MIC ([3]; ATCC25922, read-out: MIC EC 107 25922, control compounds, numeric): 0.03 µg/mL (≈ 0.0512 µM) | MIC ([4]; read-out: MIC EF 404 tet M): 0.031 µg/mL (≈ 0.0529 µM) | MIC ([4]; read-out: MIC EF 404 tetM): 0.03 µg/mL (≈ 0.0512 µM) | MIC [5]: 1 µg/mL (≈ 1.71 µM) | MIC [6]: 0.02 µg/mL (≈ 0.0341 µM) | MIC (PA 884 35151): 0.063 µg/mL (≈ 0.108 µM) | MIC [7]: 0.016 µg/mL (≈ 0.0273 µM) | MIC ([8]; MG1655, read-out: MIC EC 878 toIC, E. coli MG1655 tolC::kan, Table 6): 0.031 µg/mL (≈ 0.0529 µM) | MIC ([8]; MG1655, read-out: MIC EC 878 toIC, E. coli MG1655 tolC::kan, Table 7): 0.03 µg/mL (≈ 0.0512 µM) | MIC ([8]; MG1655, read-out: MIC EC 878 toIC, control compounds): 0.03 µg/mL (≈ 0.0512 µM) | MIC ([8]; MG1655, read-out: MIC EC 878 tolC, control compounds, numeric): 0.03 µg/mL (≈ 0.0512 µM) | MIC [9]: 8 µg/mL (≈ 13.7 µM) | MIC ([10]; read-out: MIC SP 312): 0.02 µg/mL (≈ 0.0341 µM) | MIC ([10]; read-out: MIC SP 312 tet M): 0.015 µg/mL (≈ 0.0256 µM) | MIC (PA 689): 1 µg/mL (≈ 1.71 µM) | MIC KP 194 7E+05 (KP 194 7E+05): 8 μg/mL | MIC [11]: 1 µg/mL (≈ 1.71 µM) | MIC [12]: 0.031 µg/mL (≈ 0.0529 µM) | MIC ([13]; read-out: MIC SP 160 tet M, S. pneumoniae tet(M), Table 6): 0.015 µg/mL (≈ 0.0256 µM) | MIC ([13]; read-out: MIC SP 160 tetM, S. pneumoniae tet(M), Table 4): 0.016 µg/mL (≈ 0.0273 µM) | MIC ([13]; read-out: MIC SP 160 tetM, S. pneumoniae tet(M), Table 5): 0.02 µg/mL (≈ 0.0341 µM) | MIC ([13]; read-out: MIC SP 160 tetM, S. pneumoniae tet(M), Table 7): 0.02 µg/mL (≈ 0.0341 µM) | MIC ([13]; read-out: MIC SP 160 tetM, control compounds): 0.02 µg/mL (≈ 0.0341 µM) | MIC ([13]; read-out: MIC SP 160 tetM, control compounds, numeric): 0.02 µg/mL (≈ 0.0341 µM) | MIC [14]: 33 µg/mL (≈ 56.3 µM) | MIC ([14]; read-out: MIC PA 1145): 16 µg/mL (≈ 27.3 µM) | MIC ([14]; read-out: MIC PA 1145 Vivi- source): 16 µg/mL (≈ 27.3 µM) | MIC (EC 880 ipxC; Table 6, read-out: MIC EC 880 ipx C): 0.015 µg/mL (≈ 0.0256 µM) | MIC (EC 880 ipxC; Table 7, read-out: MIC EC 880 ipxC): 0.02 µg/mL (≈ 0.0341 µM) | MIC [15]: 0.25 µg/mL (≈ 0.427 µM) | MIC ([16]; read-out: MIC EF 159 tetM, E. faecalis tet(M), Table 4): 0.063 µg/mL (≈ 0.108 µM) | MIC ([16]; read-out: MIC EF 159 tetM, E. faecalis tet(M), Table 5): 0.06 µg/mL (≈ 0.102 µM) | MIC [17]: 1 µg/mL (≈ 1.71 µM) | MIC ([17]; read-out: MIC SM 256): 1 µg/mL (≈ 1.71 µM) | MIC (EC 882 imp; Table 6): 0.015 µg/mL (≈ 0.0256 µM) | MIC (EC 882 imp; Table 7): 0.02 µg/mL (≈ 0.0341 µM) | MIC ([18]; read-out: MIC SA 158 tetK, S. aureus tet(K), Table 4): 0.063 µg/mL (≈ 0.108 µM) | MIC ([18]; read-out: MIC SA 158 tetK, S. aureus tet(K), Table 5): 0.06 µg/mL (≈ 0.102 µM) | MIC ([18]; read-out: MIC SA 158 tetK, S. aureus tet(K), Table 6): 0.063 µg/mL (≈ 0.108 µM) | MIC ([18]; read-out: MIC SA 158 tetK, S. aureus tet(K), Table 7): 0.06 µg/mL (≈ 0.102 µM) | MIC ([18]; read-out: MIC SA 158 tetK, control compounds): 0.06 µg/mL (≈ 0.102 µM) | MIC ([18]; read-out: MIC SA 158 tetK, control compounds, numeric): 0.06 µg/mL (≈ 0.102 µM) | MIC [19]: 16 µg/mL (≈ 27.3 µM) | MIC ([19]; read-out: MIC PA5 55 BAA- 47): 16 µg/mL (≈ 27.3 µM) | MIC ([19]; read-out: MIC PA 555): 16 µg/mL (≈ 27.3 µM) | MIC ([19]; read-out: MIC PA 555 BAA- 47): 16 µg/mL (≈ 27.3 µM) | MIC ([19]; read-out: MIC PA 555 BAA-47): 16 µg/mL (≈ 27.3 µM) | MIC [20]: 0.25 µg/mL (≈ 0.427 µM)

— US10315992B2, “Tetracyline compounds” (Tetraphase Pharmaceuticals, Inc., priority 2012, dated 2019)
